Molecular target: CDK2/Cyclin E1 (Homo sapiens, UniProt P24941)
Assay: CDK2/Cyclin E1 Caliper LabChip EZ Reader mobility shift assay
Type: biochemical
Set-up: purchased Eurofins 14-475
Settings: read-out: Caliper Assay (CDK2/CCNE1): IC50
Method in brief: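 Substrate-to-product conversion of fluorescent peptide (1.5 μM final) read by capillary electrophoresis after 100 min reaction, EDTA-quenched. Enzyme (2.5 nM final) and ATP (100 μM final) were preincubated 30 min with inhibitor dilutions first. % activity vs concentration fitted four-parameter for IC50.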

SMILES | IC50 [nM]
C[C@@H]1C[C@H](C)CN(C(=O)[C@@H](NC(=O)C2CN(C(=O)c3cn[nH]c3)CC23CN(C(=O)[C@H]2CC2(C)C)C3)[C@@H](C)OCc2ccccc2)C1 (stereo partly shown) [I-124] | 100 to 1000
CNC(=O)[C@@H](NC(=O)[C@@H]1CN(C(=O)c2cnn(Cc3ccccc3)c2)CC12CN(C(=O)[C@H]1CC1(C)C)C2)[C@@H](C)OCCC1CCCCC1 [I-125A] | ≤ 10
CNC(=O)[C@@H](NC(=O)[C@H]1CN(C(=O)c2cnn(Cc3ccccc3)c2)CC12CN(C(=O)[C@H]1CC1(C)C)C2)[C@@H](C)OCCC1CCCCC1 [I-125B] | 10 to 100
COc1cccc(CNC(=O)[C@@H]2CN(C(=O)c3cnn(Cc4ccccc4)c3)CC23CN(C(=O)[C@H]2CC2(C)C)C3)n1 [I-126A] | > 10000
COc1cccc(CNC(=O)[C@H]2CN(C(=O)c3cnn(Cc4ccccc4)c3)CC23CN(C(=O)[C@H]2CC2(C)C)C3)n1 [I-126B] | > 10000
C[C@H](NC(=O)[C@@H]1CN(C(=O)c2cnn(Cc3ccccc3)c2)CC12CN(C(=O)[C@H]1CC1(C)C)C2)c1cccc(F)c1 [I-127A] | 1000 to 10000
C[C@H](NC(=O)[C@H]1CN(C(=O)c2cnn(Cc3ccccc3)c2)CC12CN(C(=O)[C@H]1CC1(C)C)C2)c1cccc(F)c1 [I-127B] | > 10000
C[C@@H](NC(=O)[C@@H]1CN(C(=O)c2cnn(Cc3ccccc3)c2)CC12CN(C(=O)[C@H]1CC1(C)C)C2)c1cccc(F)c1 [I-128A] | > 10000
C[C@@H](NC(=O)[C@H]1CN(C(=O)c2cnn(Cc3ccccc3)c2)CC12CN(C(=O)[C@H]1CC1(C)C)C2)c1cccc(F)c1 [I-128B] | > 10000
CNC(=O)[C@@H](NC(=O)[C@@H]1CN(C(=O)c2cncs2)CC12CN(C(=O)[C@H]1CC1(C)C)C2)[C@@H](C)OCC1CCCCC1 [I-129A] | 10 to 100
CNC(=O)[C@@H](NC(=O)[C@H]1CN(C(=O)c2cncs2)CC12CN(C(=O)[C@H]1CC1(C)C)C2)[C@@H](C)OCC1CCCCC1 [I-129B] | 1000 to 10000
CNC(=O)[C@@H](NC(=O)[C@@H]1CN(C(=O)c2cnn(Cc3ccccc3)c2)CC12CN(C(=O)[C@H]1CC1(C)C)C2)[C@@H](C)OCC(C)(C)C [I-130A] | 10 to 100
CNC(=O)[C@@H](NC(=O)[C@H]1CN(C(=O)c2cnn(Cc3ccccc3)c2)CC12CN(C(=O)[C@H]1CC1(C)C)C2)[C@@H](C)OCC(C)(C)C [I-130B] | 100 to 1000
CO[C@H]1COCC[C@@H]1NC(=O)[C@@H]1CN(C(=O)c2cnn(Cc3ccccc3)c2)CC12CN(C(=O)[C@H]1CC1(C)C)C2 [I-131A] | > 10000
CO[C@H]1COCC[C@@H]1NC(=O)[C@H]1CN(C(=O)c2cnn(Cc3ccccc3)c2)CC12CN(C(=O)[C@H]1CC1(C)C)C2 [I-131B] | > 10000
C[C@@H](OCC1CCCCC1)[C@H](NC(=O)[C@@H]1CN(C(=O)c2cnn(CC(F)(F)F)c2)CC12CN(C(=O)[C@H]1CC1(C)C)C2)C(=O)N1CCCCC1 [I-132] | 10 to 100
CC1(C)C[C@@H]1C(=O)N1CC2(CN(C(=O)c3cnn(Cc4ccccc4)c3)C[C@H]2C(=O)N[C@H]2CCc3cc(Cl)ccc32)C1 [I-133A] | 1000 to 10000
CC1(C)C[C@@H]1C(=O)N1CC2(CN(C(=O)c3cnn(Cc4ccccc4)c3)C[C@@H]2C(=O)N[C@H]2CCc3cc(Cl)ccc32)C1 [I-133B] | 1000 to 10000
CO[C@H]1COCC[C@H]1NC(=O)[C@@H]1CN(C(=O)c2cnn(Cc3ccccc3)c2)CC12CN(C(=O)[C@H]1CC1(C)C)C2 [I-134A] | > 10000
CO[C@H]1COCC[C@H]1NC(=O)[C@H]1CN(C(=O)c2cnn(Cc3ccccc3)c2)CC12CN(C(=O)[C@H]1CC1(C)C)C2 [I-134B] | > 10000

SMILES | IC50 [nM]
C[C@@H](OCC1CCCCC1)[C@@H](CO)NC(=O)[C@@H]1CN(C(=O)c2cnn(Cc3ccccc3)c2)CC12CN(C(=O)[C@H]1CC1(C)C)C2 [I-135A] | 10 to 100
C[C@@H](OCC1CCCCC1)[C@@H](CO)NC(=O)[C@H]1CN(C(=O)c2cnn(Cc3ccccc3)c2)CC12CN(C(=O)[C@H]1CC1(C)C)C2 [I-135B] | 100 to 1000
CNC(=O)[C@@H](NC(=O)[C@@H]1CN(C(=O)c2cnn(Cc3ccc(F)cc3)c2)CC12CN(C(=O)[C@H]1CC1(C)C)C2)[C@@H](C)OCc1ccc(F)cc1 [I-136A] | 10 to 100
CNC(=O)[C@@H](NC(=O)[C@H]1CN(C(=O)c2cnn(Cc3ccc(F)cc3)c2)CC12CN(C(=O)[C@H]1CC1(C)C)C2)[C@@H](C)OCc1ccc(F)cc1 [I-136B] | 100 to 1000
CNC(=O)[C@@H](NC(=O)[C@@H]1CN(C(=O)c2cnn(Cc3ccccc3)c2)CC12CN(C(=O)[C@H]1CC1(C)C)C2)[C@@H](C)OCC(C)C [I-137A] | 100 to 1000
CNC(=O)[C@@H](NC(=O)[C@H]1CN(C(=O)c2cnn(Cc3ccccc3)c2)CC12CN(C(=O)[C@H]1CC1(C)C)C2)[C@@H](C)OCC(C)C [I-137B] | 1000 to 10000
C[C@@H](OCC1CCCCC1)[C@H](NC(=O)C1CN(C(=O)c2cncs2)CC12CN(C(=O)[C@H]1CC1(C)C)C2)C(=O)N1CCOCC1 (stereo partly shown) [I-138] | ≤ 10
CC1(C)C[C@@H]1C(=O)N1CC2(CN(C(=O)c3cnn(Cc4ccccc4)c3)C[C@H]2C(=O)Nc2ccc(Cc3ccccc3)nc2)C1 [I-139, (S)-6-(1-benzyl-1H-pyrazole-4-carbonyl)-N-(6-benzylpyridin-3-yl)-2-((S)-2,2-dimethylcyclopropane-1-carbonyl)-2,6-diazaspiro[3.4]octane-8-carboxamide] | 100 to 1000
CC1(C)C[C@@H]1C(=O)N1CC2(CN(C(=O)c3cnn(Cc4ccccc4)c3)C[C@H]2C(=O)N[C@H]2C[C@@H]2c2cccc(Cl)c2)C1 [I-140A] | 100 to 1000
CC1(C)C[C@@H]1C(=O)N1CC2(CN(C(=O)c3cnn(Cc4ccccc4)c3)C[C@@H]2C(=O)N[C@H]2C[C@@H]2c2cccc(Cl)c2)C1 [I-140B] | > 10000
CNC(=O)[C@@H](NC(=O)[C@@H]1CN(C(=O)c2cnn(Cc3ccccc3)c2)CC12CN(C(=O)[C@H]1CC1(C)C)C2)[C@@H](C)OCC1CCC(C(F)(F)F)CC1 (stereo partly shown) [I-141A] | 10 to 100
CNC(=O)[C@@H](NC(=O)[C@H]1CN(C(=O)c2cnn(Cc3ccccc3)c2)CC12CN(C(=O)[C@H]1CC1(C)C)C2)[C@@H](C)OCC1CCC(C(F)(F)F)CC1 (stereo partly shown) [I-141B] | 100 to 1000
COC(=O)C1(NC(=O)[C@H]2CN(C(=O)c3cnn(Cc4ccccc4)c3)CC23CN(C(=O)[C@H]2CC2(C)C)C3)COC1 [I-142A] | > 10000
COC(=O)C1(NC(=O)[C@@H]2CN(C(=O)c3cnn(Cc4ccccc4)c3)CC23CN(C(=O)[C@H]2CC2(C)C)C3)COC1 [I-142B] | > 10000
CNC(=O)[C@@H](NC(=O)[C@H]1CN(Cc2n[nH]c3ccccc23)CC12CN(C(=O)[C@H]1CC1(C)C)C2)[C@@H](C)OCc1ccccc1 [I-143] | > 10000
CNC(=O)[C@@H](NC(=O)[C@@H]1CN(C(=O)c2cnn(Cc3ccccc3)c2)CC12CN(C(=O)[C@H]1CC1(C)C)C2)[C@@H](C)OCC1CCC1 [I-144A] | 10 to 100
CNC(=O)[C@@H](NC(=O)[C@H]1CN(C(=O)c2cnn(Cc3ccccc3)c2)CC12CN(C(=O)[C@H]1CC1(C)C)C2)[C@@H](C)OCC1CCC1 [I-144B] | 1000 to 10000
CNC(=O)[C@@H](NC(=O)[C@@H]1CN(C(=O)c2cnc(COC)s2)CC12CN(C(=O)[C@H]1CC1(C)C)C2)[C@@H](C)OCC1CCCCC1 [I-145A] | 10 to 100
CNC(=O)[C@@H](NC(=O)[C@H]1CN(C(=O)c2cnc(COC)s2)CC12CN(C(=O)[C@H]1CC1(C)C)C2)[C@@H](C)OCC1CCCCC1 [I-145B] | 1000 to 10000
CNC(=O)[C@@H](NC(=O)[C@H]1CN(C(=O)c2nccs2)CC12CN(C(=O)[C@H]1CC1(C)C)C2)[C@@H](C)OCC1CCCCC1 [I-146] | > 10000
